{"source": "patent EP2667887B1", "about": "“PHARMACEUTICAL COMPOSITION COMPRISING THE PEPTIDE GLU-ASP-GLY AND USE FOR TREATING HELICOBACTER PYLORI INDUCED GASTRODUODENAL DISEASES” («Garmonia», Ltd., priority 2011, dated 2012)", "key": {"modeled ulcer": {"test_system": "modeled ulcer", "test": "Morphology study of the induced gastric ulcer (cysteamine-HCL + Helicobacter pylori)", "assay_type": "in vivo, Sprague Dawley rats", "description": "(§1) The study was carried out on 90 male Sprague Dawley rats (180-220 g) randomly subdivided into 9 groups (10 animals per group): • Group 1 - intact rats (saline solution) • Group 2 - modeled ulcer + saline solution • Group 3 (6 subgroups) - modeled ulcer + H-Glu-Asp-Gly-OH • Group 4 - modeled ulcer + Klacid antibiotic\n(§2) Ulcer was modeled by three-time administration (in 4 hours) in the rat stomach of cysteamine-HCL (Aldrich, Milwannee, WI) by means of a probe in the dose of 25 mg per 100 g of body weight. The ulcer, approximately 28 mm^2 in size, appeared at the boundary between antral and fundal segments of the stomach 12 hours after the last administration. Simultaneously with the first administration of cysteamine-HCL a Helicobacter pylori culture (Curtin Matheson Scientific Inc, strain Cag J117, 100 microbial cells) was administered in the rat stomach through the same probe.\n(§3) A means on the basis of the pharmaceutical composition comprising the studied peptide H-Glu-Asp-Gly-OH was administered subcutaneously in the dose of 1 µg per kg of animal body weight (group 3a), 2,5 µg per kg of body weight (group 3b) and 10 µg per kg of body weight (group 3c) in 0,5 ml of saline solution daily, for 5 days from the occurrence of the stomach ulcer.\nas §3, with “The means” for “A means”, “administered intragastrically (through a probe)” for “administered subcutaneously”, “(group 3d),” for “(group 3a),”, “(group 3e)” for “(group 3b)”, “(group 3f)” for “(group 3c)”\nAntibiotic Klacid (clarithromycin, Abbott) was administered intramuscularly in the dose of 10 mg in 1 ml of saline solution daily for 5 days from the occurrence of the stomach ulcer.\nMaterial for study was taken from ulcer edge on the 7th day (for western blot assay and polymerase chain reaction in real time - RT-PCR), as well as on the 7th, 15th and 21st day for morphology study and confocal microscopy.\nFor a morphology study, pieces of gastric mucous membrane from the ulcer edge were fixed in 10% neutral formalin (pH 7.2), then the material was dried out in a Leica TP1020 automatic station (Leica) and covered with paraffin. 5 µm thick paraffin slices were placed on object plates covered with a poly-L-lysine film (Sigma). For a visual study the slices were stained with hematoxylin and eosin, as well as with picrofuxin by the van Gison method."}, "[1]": {"test_system": "mice embryonic fibroblasts (MEF+/+, knockout mice line LMNA)", "test": "Effect on Helicobacter pylori-induced mitochondrial damage in mouse embryonic fibroblasts (mito-GFP confocal microscopy)", "assay_type": "cell-based", "conditions": "peptide 10 µM added 30 minutes before Helicobacter pylori (strain Cag J117), 7 hours incubation; compared to control", "description": "A study of the effect of a pharmaceutical composition comprising the peptide H-Glu-Asp-Gly-OH as an active substance on molecular and cellular mechanisms of apoptosis was carried out on a wild type of mice embryonic fibroblasts (MEF+/+, knockout mice line LMNA). Cells were cultivated at 37°C in a damp incubation medium containing 5% CO2 in DMEM (Dulbecco's Modified Eagle's Medium, ICN Biomedicals) and 10% calf embryonic serum. Preliminary sorting of cells for passaging in a 1:3-1:5 ratio was performed using a mixture of 0.125% trypsin, 0.02M EDTA (ethylenediaminetetraacetic acid), 0.02% glucose dissolved in a phosphate buffer. Cells were passaged in a culturing medium for 5 days and then taken for the study.\nOn the 5th day after the beginning of passaging of the cells peptide H-Glu-Asp-Gly-OH was added in the culturing medium in the dose of 10 µM, and in 30 minutes the cells were taken for study. […]\nThe status of isolated mitochondria was evaluated using immunofluorescent confocal laser microscopy. […]\n(§4) Confocal microscopy of mitochondria with optical density evaluation was carried out in an inverted confocal microscope Olympus Fluoview CM FV300-IX70 using an apochromatic lens 606 UPlan (Olympus). A 488 nm excitation wave of argon laser was used in each chamber to specify mito-GFP fluorescence that verifies the structure of mitochondria."}, "[2]": {"test_system": "gastric epithelial cell mitochondria", "test": "Mitochondrial GFP expression in gastric epithelium after ulcer induction (confocal microscopy, in vivo study)", "design": "species or system Sprague Dawley rats", "conditions": "both methods, three doses", "description": "as §1, §2, §3\nThe means on the basis of the pharmaceutical composition comprising the studied peptide H-Glu-Asp-Gly-OH was administered intragastrically (through a probe) in the dose of 1 µg per kg of animal body weight (group 3d), 2,5 µg per kg of body weight (group 3e) and 10 µg per kg of body weight (group 3f) in 0,5 ml of saline solution daily, for 5 days from the occurrence of the stomach ulcer. […]\nThe status of isolated mitochondria was assessed using immunofluorescent confocal laser microscopy. […]\nas §4"}}}
{"substance": "glutamyl-aspartyl-glycine [H-Glu-Asp-Gly-OH]", "values": [{"measurement": "ulcer pathomorphosis, 7th day", "setting": "modeled ulcer; 7th day after ulcer induction, treatment daily for 5 days, peptide 1, 2,5, 10 µg/kg subcutaneously or intragastrically, Klacid 10 mg intramuscularly", "result": "a decrease both in the area of the ulcerous lesion and in its depth was observed"}, {"measurement": "ulcer pathomorphosis, 15th day", "setting": "modeled ulcer; 15th day after ulcer induction, treatment daily for 5 days, peptide 1, 2,5, 10 µg/kg subcutaneously or intragastrically, Klacid 10 mg intramuscularly", "result": "a significant decrease in ulcerous lesion area and depth was observed"}, {"measurement": "ulcer pathomorphosis, 21st day", "setting": "modeled ulcer; 21st day after ulcer induction, treatment daily for 5 days, peptide both methods of administration and three dosages, Klacid 10 mg intramuscularly", "result": "no ulcerous lesions were macroscopically observed"}, {"measurement": "pathomorphosis of an induced gastric ulcer (Fig. 12 C)", "setting": "modeled ulcer; 21st day, peptide dose 2,5 µg/kg", "result": "complete epithelization of the ulcer"}, {"measurement": "delay of epithelialization of the ulcerous lesion compared to higher doses", "setting": "modeled ulcer; dose 1,0 µg/kg (Groups 3a and 3d) versus 2,5 µg/kg and 10 µg/kg", "result": "2 to 3", "unit": "days"}, {"measurement": "luminescence of mitochondrial GFP in terms of optical density values", "setting": "[1]", "result": "exceeded the control indices"}, {"measurement": "mitochondrial GFP expression (optical density), 7th day", "setting": "[2]; 7th day after ulcer induction, intact 3.12±0.22, ulcer 0.54±0.02", "result": "2.86±0.21", "unit": "conv. units"}, {"measurement": "mitochondrial GFP expression (optical density), 15th day", "setting": "[2]; 15th day after ulcer induction, intact 3.17±0.18, ulcer 0.87±0.04", "result": "3.03±0.16", "unit": "conv. units"}, {"measurement": "mitochondrial GFP expression (optical density), 21st day", "setting": "[2]; 21st day after ulcer induction, intact 3.19±0.18, ulcer 1.67±0.09", "result": "3.16±0.18", "unit": "conv. units"}]}
